From patent publication US20130072523A1, “ANALOGUES FOR THE TREATMENT OR PREVENTION OF FLAVIVIRUS INFECTIONS” (VERTEX PHARMACEUTICALS INCORPORATED, priority 2009, published 2013)

Tested on: HCV 1b genotype
Test: Cell-based luciferase reporter HCV (Ib) RNA replication assay (Huh-ET replicon cells)
Conditions: Hepatitis C virus, 96 h; HCV 1b genotype replicon, 4 days incubation, luciferase readout
Description: Cell-Based Luciferase Reporter HCV (Ib) RNA Replication Assay Cell Culture
Replicon cell lines Huh-5.2 are derived from the Huh-7 hepatocarcinoma cell line are maintained in culture as generally described in Krieger, N; Lohmann, V; Bartenschlager, R. Enhancement of hepatitis C virus RNA replication by cell culture-adaptive mutations. J. Virol. 2001, 75, 4614-4624. The Huh-5.2 cells contain the highly cell culture-adapted replicon I389 Luc-ubi-neo/NS3-375.1 construct that carries, in addition to the neomycin gene, an integrated copy to the firefly luciferase gene (Krieger, N; Lohmann, V; Bartenschlager, R. Enhancement of hepatitis C virus RNA replication by cell culture-adaptive mutations. J. Virol. 2001, 75, 4614-4624). This cell line allows measurement of HCV RNA replication and translation by measuring luciferase activity. It has been previously shown that the luciferase activity tightly follows the replicon RNA level in these cells (Krieger, N; Lohmann, V; Bartenschlager, R. Enhancement of hepatitis C virus RNA replication by cell culture-adaptive mutations. J. Virol. 2001, 75, 4614-4624). The Huh-ET cell line has the same features as those mentioned for Huh-5.2 cell line, except that ET cells are more robust and contain an adaptative mutation in the HCV NS4B gene instead of NS5A. Both cell lines are maintained in cultures at a sub-confluent level (<85%) as the level of replicon RNA is highest in actively proliferating cells. The culture media used for cell passaging consist of DMEM (Gibco BRL Laboratories, Mississauga, ON, Canada) supplemented with 10% foetal bovine serum with 1% penicilin/streptomycin, 1% glutamine, 1% sodium pyruvate, 1% non-essential amino acids, and 180 μg/ml of G418 final concentration. Cells are incubated at 37° C., in an atmosphere of 5% CO2 and passaged twice a week to maintain sub-confluence.
Approximately 3000 viable Huh-ET cells (100 μl) are plated per well in a white opaque 96-well microtiter plate. The cell culture media used for the assay is the same as described above except that it contains no G418 and no phenol red. After an incubation period of 3-4 hours at 37° C. in a 5% CO2 incubator, compounds (100 μl) are added at various concentrations. Cells are then further incubated for 4 days at 37° C. in a 5% CO2 incubator. Thereafter, the culture media is removed and cells are lysed by the addition of 95 μL of the luciferase buffer (luciferin substrate in buffered detergent). Cell lysates are incubated at room temperature and protected from direct light for at least 10 minutes. Plates are read for luciferase counts using a luminometer (Wallac MicroBeta Trilux, Perkin Elmer™, MA, USA).
The 50% inhibitory concentrations (IC50s) for inhibitory effect are determined from dose response curves using eleven concentrations per compound in duplicate. Curves are fitted to data points using nonlinear regression analysis, and IC50s are interpolated from the resulting curve using GraphPad Prism software, version 2.0 (GraphPad Software Inc., San Diego, Calif., USA).
EC50 ranges are presented in micromolar as follows: μM+++<=0.005<++<=5.0<+.

| SMILES | IC50 |
| --- | --- |
| [2H]C([2H])([2H])C([2H])(C([2H])([2H])[2H])[C@@]([2H])(NC(=O)OC)C(=O)N1C[C@@H](C)C[C@H]1c1ncc(C#Cc2ccc(C#Cc3cnc([C@@H]4C[C@H](C)CN4C(=O)[C@@H](NC(=O)OC)C(C)C)[nH]3)cc2)[nH]1 [Compound 44] | ≤ 5 nM |
| COC(=O)N[C@H](C(=O)N1C[C@@H](C)C[C@H]1c1ncc(C#Cc2ccc(C#Cc3cnc([C@@H]4C[C@H](C)CN4C(=O)[C@@H](NC(=O)OC)C(C)C)[nH]3)c3c2OC(F)(F)O3)[nH]1)C(C)C [Compound 45] | ≤ 5 nM |
| COC(=O)N[C@H](C(=O)N[C@H](C(=O)N1C[C@@H](C)C[C@H]1c1ncc(C#Cc2ccc(C#Cc3cnc([C@@H]4C[C@H](C)CN4C(=O)[C@@H](NC(=O)OC)C(C)C)[nH]3)cc2)[nH]1)C(C)C)C(C)C [Compound 46] | ≤ 5 nM |
| COC(=O)N[C@H](C(=O)N1C[C@@H](C)C[C@H]1c1nc(C)c(-c2cc3sc(-c4[nH]c([C@@H]5C[C@H](C)CN5C(=O)[C@@H](NC(=O)OC)C(C)C)nc4C)cc3s2)[nH]1)C(C)C [Compound 47] | ≤ 5 nM |
| COC(=O)N[C@H](C(=O)N1C[C@@H](C)C[C@H]1c1nc(C(F)(F)F)c(C#Cc2ccc(C#Cc3[nH]c([C@@H]4C[C@H](C)CN4C(=O)[C@@H](NC(=O)OC)C(C)C)nc3C(F)(F)F)cc2)[nH]1)C(C)C [Compound 48] | ≤ 5 nM |
| COC(=O)N[C@H](C(=O)N1C[C@@H](C)C[C@H]1c1nc(-c2ccc3cc(-c4c[nH]c([C@@H]5C[C@H](C)CN5C(=O)[C@@H](NC(=O)OC)C(C)C)n4)ccc3c2)c[nH]1)C(C)C [Compound 49] | ≤ 5 nM |
| COC(=O)N[C@H](C(=O)N1C[C@@H](C)C[C@@H]1c1ncc(C#Cc2ccc(C#Cc3cnc([C@@H]4C[C@H](C)CN4C(=O)[C@@H](NC(=O)OC)C(C)C)[nH]3)cc2)[nH]1)C(C)C [Compound 52] | 5 to 5000 nM |
| COC(=O)N[C@H](C(=O)N1C[C@@H](C)C[C@H]1c1nc(C#CC#Cc2c[nH]c([C@@H]3C[C@H](C)CN3C(=O)[C@@H](NC(=O)OC)C(C)C)n2)c[nH]1)C(C)C [Compound 53] | ≤ 5 nM |
| COC(=O)N[C@H](C(=O)N1C[C@@H](C)C[C@H]1c1ncc(C#Cc2ccc(C#Cc3cnc([C@@H]4C[C@H](C)CN4C(=O)OC(C)(C)C)[nH]3)cc2)[nH]1)C(C)C [Compound 54] | ≤ 5 nM |
| COC(=O)N[C@H](C(=O)N1C[C@@H](C)C[C@H]1c1nc(C#Cc2ccc3nc(C#Cc4c[nH]c([C@@H]5C[C@H](C)CN5C(=O)[C@@H](NC(=O)OC)C(C)C)n4)ccc3c2)c[nH]1)C(C)C [Compound 55] | ≤ 5 nM |
| COC(=O)N[C@H](C(=O)N1C[C@@H](C)C[C@H]1c1ncc(C#Cc2ccc(C#Cc3cnc([C@@H]4C[C@H](C)CN4C(=O)[C@@H](NC(=O)OC)C(C)C)[nH]3)nc2)[nH]1)C(C)C [Compound 56] | ≤ 5 nM |
| COC(=O)N[C@H](C(=O)N1C[C@@H](C)C[C@H]1c1nc(C#Cc2ccc(C#Cc3c[nH]c([C@@H]4C[C@H](C)CN4C(=O)[C@@H](NC(=O)OC)C(C)C)n3)c(C(=O)OC)c2)c[nH]1)C(C)C [Compound 57] | ≤ 5 nM |
| COC(=O)N[C@H](C(=O)N1C[C@@H](C)C[C@H]1c1ncc(-c2ccc(-c3[nH]c([C@@H]4C[C@H](C)CN4C(=O)[C@@H](NC(=O)OC)C(C)C)nc3-c3cc4sccc4s3)cc2)[nH]1)C(C)C [Compound 58] | ≤ 5 nM |
| COC(=O)N[C@H](C(=O)N1C[C@@H](C)C[C@H]1c1nc(CO)c(C#Cc2ccc(C#Cc3[nH]c([C@@H]4C[C@H](C)CN4C(=O)[C@@H](NC(=O)OC)C(C)C)nc3CO)cc2)[nH]1)C(C)C [Compound 59] | 5 to 5000 nM |
| COC(=O)N[C@H](C(=O)N1C[C@@H](C)C[C@H]1c1nc(C#Cc2ccc(C#Cc3c[nH]c([C@@H]4C[C@H](C)CN4C(=O)[C@@H](NC(=O)OC)C(C)C)n3)s2)c[nH]1)C(C)C [Compound 60] | ≤ 5 nM |
| COC(=O)N[C@H](C(=O)N1C[C@@H](C)C[C@H]1c1nc(C#Cc2ccc3sc(C#Cc4c[nH]c([C@@H]5C[C@H](C)CN5C(=O)[C@@H](NC(=O)OC)C(C)C)n4)cc3c2)c[nH]1)C(C)C [Compound 61] | ≤ 5 nM |
| COC(=O)N[C@H](C(=O)N1C[C@@H](C)C[C@H]1c1nc(C#Cc2ccc(C#Cc3c[nH]c([C@@H]4C[C@H](C)CN4C(=O)[C@@H](NC(=O)OC)C(C)C)n3)c(C#N)c2)c[nH]1)C(C)C [Compound 62] | ≤ 5 nM |
| COC(=O)N[C@H](C(=O)N1C[C@@H](C)C[C@H]1c1nc(C#Cc2ccc(C#Cc3c[nH]c([C@@H]4C[C@H](C)CN4C(=O)[C@@H](NC(=O)OC)C(C)C)n3)c(Cl)c2)c[nH]1)C(C)C [Compound 63] | ≤ 5 nM |
| COC(=O)N[C@H](C(=O)N1C[C@@H](C)C[C@H]1c1ncc(C#Cc2ccc(C#Cc3cnc([C@@H]4C[C@H](CO)CN4C(=O)[C@@H](NC(=O)OC)C(C)C)[nH]3)cc2)[nH]1)C(C)C [Compound 64] | ≤ 5 nM |
| C[C@H]1C[C@@H](c2ncc(-c3ccc(-c4ccc(-c5cnc([C@@H]6C[C@H](C)CN6C(=O)OC(C)(C)C)[nH]5)s4)cc3)[nH]2)N(C(=O)OC(C)(C)C)C1 [Compound 65] | 5 to 5000 nM |
| COC(=O)N[C@H](C(=O)N1C[C@@H](C)C[C@H]1c1nc(C)c(C#Cc2cc3sc(C#Cc4[nH]c([C@@H]5C[C@H](C)CN5C(=O)[C@@H](NC(=O)OC)C(C)C)nc4C)cc3s2)[nH]1)C(C)C [Compound 66] | ≤ 5 nM |
| COC(=O)N[C@H](C(=O)N1C[C@@H](C)C[C@H]1c1nc(C#Cc2ccc3cc(C#Cc4c[nH]c([C@@H]5C[C@H](C)CN5C(=O)[C@@H](NC(=O)OC)C(C)C)n4)sc3c2)c[nH]1)C(C)C [Compound 67] | ≤ 5 nM |
| COC(=O)N[C@H](C(=O)N1C[C@@H](OC)C[C@H]1c1ncc(C#Cc2ccc(C#Cc3cnc([C@@H]4C[C@H](OC)CN4C(=O)[C@@H](NC(=O)OC)C(C)C)[nH]3)cc2)[nH]1)C(C)C [Compound 68] | ≤ 5 nM |
| COC(=O)N[C@H](C(=O)N1C[C@@H](C)C[C@H]1c1ncc(-c2ccc(-c3cc4sc(-c5cnc([C@@H]6C[C@H](C)CN6C(=O)[C@@H](NC(=O)OC)C(C)C)[nH]5)cc4s3)cc2)[nH]1)C(C)C [Compound 69] | ≤ 5 nM |
| COC(=O)N[C@H](C(=O)N1CCC[C@H]1c1nc(-c2cc3sc(-c4c[nH]c([C@@H]5CCCN5C(=O)[C@@H](NC(=O)OC)C(C)C)n4)cc3s2)c[nH]1)C(C)C [Example 25, Methyl N-[(1S)-1-[(2S)-2-[4-[2-[2-[(2S)-1-[(2S)-2-(methoxycarbonylamino)-3-methyl-butanoyl]pyrrolidin-2-yl]-1H-imidazol-4-yl]thieno[3,2-b]thiophen-5-yl]-1H-imidazol-2-yl]pyrrolidine-1-carbonyl]-2-methyl-propyl]carbamate] | ≤ 5 nM |
| COC(=O)N[C@H](C(=O)N1CC(C)(C)C[C@H]1c1nc(C)c(C#Cc2ccc(C#Cc3[nH]c([C@@H]4CC(C)(C)CN4C(=O)[C@@H](NC(=O)OC)C(C)C)nc3C)cc2)[nH]1)C(C)C [Example 30] | ≤ 5 nM |
| COC(=O)N[C@H](C(=O)N1[C@@H](C)CC[C@H]1c1ncc(C#Cc2ccc(C#Cc3cnc([C@@H]4CC[C@H](C)N4C(=O)[C@@H](NC(=O)OC)C(C)C)[nH]3)cc2)[nH]1)C(C)C [Example 42] | ≤ 5 nM |
| COC(=O)N[C@H](C(=O)N1CC(C)(C)C[C@H]1c1ncc(C#Cc2ccc(C#Cc3cnc([C@@H]4CC(C)(C)CN4C(=O)[C@@H](NC(=O)OC)C(C)C)[nH]3)cc2)[nH]1)C(C)C [Example 43] | ≤ 5 nM |
